# From ChEMBL document CHEMBL1201862, “PubChem BioAssay data set” (2004)
#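 Dose response: 5 concentrations. Exposure: 48 h. Format: 96-well plates. Endpoint: linear interpolation; highest concentration if not reached. At the GI50, growth is halved.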 Calls of active or inactive are those of the source. Cut-off read from the data, not from the text of the source: active = GI50 up to about 1.1 µM and inactive = higher.
# Assays:
# Experiment in all cases: inhibition of tumour cell growth, NCI panel, 48 h
# COLO 205 = tested on: COLO 205
# HCC 2998 = tested on: HCC 2998
# M14 = tested on: M14
# M19-MEL = tested on: M19-MEL
# OVCAR-3 = tested on: OVCAR-3
# OVCAR-8 = tested on: OVCAR-8
# RPMI-8226 = tested on: RPMI-8226
# SK-MEL-5 = tested on: SK-MEL-5
# SK-OV-3 = tested on: SK-OV-3
# SN12C = tested on: SN12C
# SW-620 = tested on: SW-620
# TK-10 = tested on: TK-10
# U-251 = tested on: U-251
# BT-549 = tested on: BT-549
# MCF7 = tested on: MCF7
# MDA-MB-231 = tested on: MDA-MB-231
# MDA-MB-435 = tested on: MDA-MB-435
# RXF 393 = tested on: RXF 393
# SNB-75 = tested on: SNB-75
# T47D = tested on: T47D
SMILES,GI50 (COLO 205),GI50 (HCC 2998),GI50 (M14),GI50 (M19-MEL),GI50 (OVCAR-3),GI50 (OVCAR-8),GI50 (RPMI-8226),GI50 (SK-MEL-5),GI50 (SK-OV-3),GI50 (SN12C),GI50 (SW-620),GI50 (TK-10),GI50 (U-251),GI50 (BT-549),GI50 (MCF7),GI50 (MDA-MB-231),GI50 (MDA-MB-435),GI50 (RXF 393),GI50 (SNB-75),GI50 (T47D)
COC1(OC)C2(Cl)C(Cl)=C(Cl)C1(Cl)C1C2C2CC1(C(=O)O)c1ccccc12 (stereo not given),23.9 µM (inactive),22.9 µM (inactive),17.9 µM (inactive),18.9 µM (inactive),18.2 µM (inactive),27.4 µM (inactive),17 µM (inactive),15.9 µM (inactive),33.3 µM (inactive),20.5 µM (inactive),18.8 µM (inactive),29.1 µM (inactive),18.5 µM (inactive),–,–,–,–,–,–,–
O=[N+]([O-])c1ccc(-[n+]2ccc3ccccc3c2)c([N+](=O)[O-])c1,2.55 µM (inactive),13.7 µM (inactive),4.55 µM (inactive),–,2.55 µM (inactive),2.47 µM (inactive),2.32 µM (inactive),2.64 µM (inactive),14.1 µM (inactive),2.69 µM (inactive),1.95 µM (inactive),1.85 µM (inactive),5.68 µM (inactive),4.83 µM (inactive),1.88 µM (inactive),3.62 µM (inactive),2.5 µM (inactive),1.92 µM (inactive),3.14 µM (inactive),2.01 µM (inactive)
CCOP(=O)(OCC)/C(C#N)=C/c1c[nH]c2ccccc12,> 100 µM (inactive),> 100 µM (inactive),> 100 µM (inactive),–,62.8 µM (inactive),> 100 µM (inactive),90.4 µM (inactive),> 100 µM (inactive),> 100 µM (inactive),> 100 µM (inactive),> 100 µM (inactive),> 100 µM (inactive),> 100 µM (inactive),57.9 µM (inactive),> 100 µM (inactive),> 100 µM (inactive),> 100 µM (inactive),> 100 µM (inactive),> 100 µM (inactive),> 100 µM (inactive)
CC(C)Cn1cnc2c(NCC(C)O)nc3ccccc3c21 (stereo not given),51.1 µM (inactive),> 100 µM (inactive),> 100 µM (inactive),–,> 100 µM (inactive),> 100 µM (inactive),> 100 µM (inactive),70.6 µM (inactive),> 100 µM (inactive),> 100 µM (inactive),> 100 µM (inactive),91.4 µM (inactive),> 100 µM (inactive),> 100 µM (inactive),> 100 µM (inactive),> 100 µM (inactive),> 100 µM (inactive),> 100 µM (inactive),56.1 µM (inactive),> 100 µM (inactive)
O=C(O)c1ccc(C(=O)O)c(C(=O)Nc2ccc3c(c2)C(=O)c2ccccc2-3)c1,> 100 µM (inactive),> 100 µM (inactive),> 100 µM (inactive),–,> 100 µM (inactive),> 100 µM (inactive),> 100 µM (inactive),> 100 µM (inactive),> 100 µM (inactive),> 100 µM (inactive),> 100 µM (inactive),> 100 µM (inactive),> 100 µM (inactive),> 100 µM (inactive),> 100 µM (inactive),> 100 µM (inactive),> 100 µM (inactive),> 100 µM (inactive),> 100 µM (inactive),> 100 µM (inactive)
COc1ccc(N/N=C2\C3=C(CCC(C)(C)O3)C(=O)c3ccccc32)cc1,22.9 µM (inactive),12.1 µM (inactive),20.7 µM (inactive),–,14.9 µM (inactive),26.5 µM (inactive),16.8 µM (inactive),12.2 µM (inactive),37 µM (inactive),17.9 µM (inactive),34 µM (inactive),20.5 µM (inactive),19.2 µM (inactive),19.1 µM (inactive),12.4 µM (inactive),22.2 µM (inactive),17.1 µM (inactive),12.4 µM (inactive),19 µM (inactive),2.51 µM (inactive)
CC(C)[Si](OC1=C(C(=O)Nc2ccccc2Cl)CCCCC1)(C(C)C)C(C)C,> 100 µM (inactive),> 100 µM (inactive),> 100 µM (inactive),–,> 100 µM (inactive),> 100 µM (inactive),> 100 µM (inactive),> 100 µM (inactive),> 100 µM (inactive),> 100 µM (inactive),> 100 µM (inactive),> 100 µM (inactive),> 100 µM (inactive),> 100 µM (inactive),> 100 µM (inactive),> 100 µM (inactive),> 100 µM (inactive),> 100 µM (inactive),> 78.2 µM (inactive),> 100 µM (inactive)
O=C(O)CN(CCNC(=O)OCC1c2ccccc2-c2ccccc21)CCNC(=O)OCC1c2ccccc2-c2ccccc21,20.8 µM (inactive),35.6 µM (inactive),28.8 µM (inactive),–,18.1 µM (inactive),20.1 µM (inactive),25.4 µM (inactive),19.6 µM (inactive),32.2 µM (inactive),25 µM (inactive),21.2 µM (inactive),29.1 µM (inactive),20.1 µM (inactive),27.2 µM (inactive),18 µM (inactive),17.4 µM (inactive),19.1 µM (inactive),36.1 µM (inactive),29.6 µM (inactive),20.1 µM (inactive)
CCN(CC)CCC(=O)c1ccc(Sc2ccc(F)cc2)cc1,21.1 µM (inactive),32.6 µM (inactive),20.5 µM (inactive),–,18.8 µM (inactive),19.4 µM (inactive),2.44 µM (inactive),17.1 µM (inactive),23.3 µM (inactive),21.7 µM (inactive),19.9 µM (inactive),14.4 µM (inactive),16 µM (inactive),17.2 µM (inactive),14.7 µM (inactive),16.9 µM (inactive),14.9 µM (inactive),17 µM (inactive),17.5 µM (inactive),21.2 µM (inactive)
NS(=O)(=O)c1ccc(NC(=O)N/N=C/c2ccccc2O)cc1,35.5 µM (inactive),40.7 µM (inactive),36.8 µM (inactive),–,42 µM (inactive),45.1 µM (inactive),> 100 µM (inactive),46.3 µM (inactive),81.5 µM (inactive),85.3 µM (inactive),74.3 µM (inactive),> 100 µM (inactive),50.1 µM (inactive),43.8 µM (inactive),58.2 µM (inactive),> 100 µM (inactive),16.4 µM (inactive),> 100 µM (inactive),56.9 µM (inactive),88.7 µM (inactive)
CCO/C=N/C1=C(C#N)SC2=N/C(=C\c3ccccc3)C(=O)N21,> 100 µM (inactive),> 100 µM (inactive),> 100 µM (inactive),–,> 100 µM (inactive),> 100 µM (inactive),> 58.1 µM (inactive),> 100 µM (inactive),> 100 µM (inactive),> 100 µM (inactive),> 100 µM (inactive),> 89.1 µM (inactive),> 100 µM (inactive),> 100 µM (inactive),> 100 µM (inactive),> 100 µM (inactive),> 100 µM (inactive),> 100 µM (inactive),> 81.3 µM (inactive),86.9 µM (inactive)
CCN(CC)C1Oc2cc3c(cc2C(c2cccc(OC)c2OC)C1C)OCO3 (stereo not given),3.85 µM (inactive),11.3 µM (inactive),12.1 µM (inactive),–,2.7 µM (inactive),3.56 µM (inactive),1.48 µM (inactive),6.84 µM (inactive),4.53 µM (inactive),5.4 µM (inactive),4.24 µM (inactive),5.77 µM (inactive),4.33 µM (inactive),3.4 µM (inactive),5.08 µM (inactive),13.3 µM (inactive),10.1 µM (inactive),2.23 µM (inactive),6.03 µM (inactive),3.42 µM (inactive)
COC1C=CC23c4cc5c(cc4C(O)OC2CN(C)C3C1)OCO5 (stereo not given),1.08 µM (active),2.29 µM (inactive),0.746 µM (active),1.52 µM (inactive),1.76 µM (inactive),2.16 µM (inactive),2.56 µM (inactive),0.434 µM (active),–,2.35 µM (inactive),1.59 µM (inactive),–,–,–,–,–,–,–,–,–
O=C(O)CC1OCC=C2CN3CCC45C6=CC(=O)C(O)=C([N+](=O)[O-])C6=NC4C1C2CC35 (stereo not given),> 100 µM (inactive),> 100 µM (inactive),> 100 µM (inactive),–,> 100 µM (inactive),> 100 µM (inactive),31 µM (inactive),> 100 µM (inactive),> 100 µM (inactive),> 100 µM (inactive),47 µM (inactive),> 100 µM (inactive),> 100 µM (inactive),> 100 µM (inactive),> 100 µM (inactive),> 100 µM (inactive),17.2 µM (inactive),> 100 µM (inactive),> 100 µM (inactive),> 100 µM (inactive)
[N-]=[N+]=NC1=C(N=[N+]=[N-])c2cccc3cccc(c23)C1=O,> 100 µM (inactive),> 100 µM (inactive),> 100 µM (inactive),–,> 100 µM (inactive),> 100 µM (inactive),> 100 µM (inactive),> 100 µM (inactive),> 100 µM (inactive),> 100 µM (inactive),57.7 µM (inactive),> 100 µM (inactive),97.7 µM (inactive),> 100 µM (inactive),> 100 µM (inactive),60.1 µM (inactive),> 100 µM (inactive),65.6 µM (inactive),> 100 µM (inactive),> 100 µM (inactive)
